“And” between values parts separate entries of the source, which are not always exact repeats. Identical values can stand only once. Inconclusive results and toxic doses are left out.
System: P388 leukemia ip, CD2F1 mice, survival T/C
Assay: NCI In Vivo Anticancer Drug Screen. Data for tumor model P388 Leukemia (intraperitoneal) in CD2F1 (CDF1) mice
Conditions: endpoint: median survival time, higher = longer survival
Outline: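 Mice carrying the transplanted tumor received test compound or vehicle. Survival was recorded in each group, and the value is the treated-group measurement divided by that of the vehicle-treated control group.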

[1] = dose: 50.0 mg/kg/injection, schedule: Q01DX001 (ip), vehicle: Klucel (hydroxypropylcellulose) (HPC)
[2] = dose: 60.0 mg/kg/injection, schedule: Q01DX005 (ip), vehicle: saline with Tween-80
[3] = dose: 120.0 mg/kg/injection, schedule: Q01DX005 (ip), vehicle: saline with Tween-80
[4] = dose: 240.0 mg/kg/injection, schedule: Q01DX005 (ip), vehicle: saline with Tween-80
[5] = dose: 50.0 mg/kg/injection, schedule: Q01DX005 (ip), vehicle: saline
[6] = dose: 100.0 mg/kg/injection, schedule: Q01DX005 (ip), vehicle: saline
[7] = dose: 200.0 mg/kg/injection, schedule: Q01DX005 (ip), vehicle: saline
[8] = dose: 12.5 mg/kg/injection, schedule: Q01DX009 (ip), vehicle: saline with Tween-80
[9] = dose: 25.0 mg/kg/injection, schedule: Q01DX009 (ip), vehicle: saline with Tween-80
[10] = dose: 60.0 mg/kg/injection, schedule: Q01DX005 (ip), vehicle: Klucel (hydroxypropylcellulose) (HPC)
[11] = dose: 120.0 mg/kg/injection, schedule: Q01DX005 (ip), vehicle: Klucel (hydroxypropylcellulose) (HPC)
[12] = dose: 240.0 mg/kg/injection, schedule: Q01DX005 (ip), vehicle: Klucel (hydroxypropylcellulose) (HPC)
[13] = dose: 50.0 mg/kg/injection, schedule: Q01DX005 (ip), vehicle: Klucel (hydroxypropylcellulose) (HPC)
[14] = dose: 50.0 mg/kg/injection, schedule: Q01DX005 (ip), vehicle: saline with Tween-80
[15] = dose: 200.0 mg/kg/injection, schedule: Q01DX005 (ip), vehicle: saline with Tween-80
[16] = dose: 12.5 mg/kg/injection, schedule: Q01DX009 (ip), vehicle: saline
[17] = dose: 25.0 mg/kg/injection, schedule: Q01DX009 (ip), vehicle: saline
[18] = dose: 50.0 mg/kg/injection, schedule: Q01DX009 (ip), vehicle: saline
[19] = dose: 100.0 mg/kg/injection, schedule: Q01DX009 (ip), vehicle: saline
[20] = dose: 200.0 mg/kg/injection, schedule: Q01DX009 (ip), vehicle: saline

## NC(=S)c1ccc(N=Cc2ccccc2)cc1
dose: 12.5 mg/kg/injection, schedule: Q01DX001 (ip), vehicle: Klucel (hydroxypropylcellulose) (HPC)
  T/C: 101 % of control
dose: 25.0 mg/kg/injection, schedule: Q01DX001 (ip), vehicle: Klucel (hydroxypropylcellulose) (HPC)
  T/C: 101 % of control
[1]
  T/C: 95 % of control

## CC1=CC2C3C(=O)NC(=O)C3C1(C)C1C3C(=O)NC(=O)C3C21 (centres undefined)
[2]
  T/C: 100 % of control
[3]
  T/C: 100 % of control
[4]
  T/C: 101 % of control

## C[n+]1cccc2c1-c1c(ccc[n+]1C)C2
[5]
  T/C: 108 % of control
[6]
  T/C: 105 % of control
[7]
  T/C: 104 % of control

## Cn1c2ccccc2c2nnc(N/N=C/c3ccncc3)nc21
dose: 100.0 mg/kg/injection, schedule: Q04DX002 (ip), vehicle: saline with Tween-80
  T/C: 88 % of control
dose: 200.0 mg/kg/injection, schedule: Q04DX002 (ip), vehicle: saline with Tween-80
  T/C: 88 % of control
dose: 400.0 mg/kg/injection, schedule: Q04DX002 (ip), vehicle: saline with Tween-80
  T/C: 99 % of control and 100 % of control

## C=CC(=NC(C)(C)C)Nc1ccccc1
dose: 6.25 mg/kg/injection, schedule: Q01DX009 (ip), vehicle: saline with Tween-80
  T/C: 101 % of control
[8]
  T/C: 105 % of control
[9]
  T/C: 108 % of control

## C/C(C=O)=C\c1ccc(N(C)C)cc1
[10]
  T/C: 101 % of control
[11]
  T/C: 101 % of control
[12]
  T/C: 100 % of control

## COC(=O)C1=CO[C@@H](OC2OC(CO)C(O)C(O)C2O)[C@@H]2[C@@H](C)[C@@H](O)[C@@H](O)[C@]12O (some centres undefined)
dose: 25.0 mg/kg/injection, schedule: Q01DX005 (ip), vehicle: saline
  T/C: 102 % of control
[5]
  T/C: 102 % of control
[6]
  T/C: 100 % of control
[7]
  T/C: 108 % of control

## c1ccc2c(c1)C1OC2c2ccccc21
[13]
  T/C: 99 % of control
dose: 100.0 mg/kg/injection, schedule: Q01DX005 (ip), vehicle: Klucel (hydroxypropylcellulose) (HPC)
  T/C: 108 % of control
dose: 200.0 mg/kg/injection, schedule: Q01DX005 (ip), vehicle: Klucel (hydroxypropylcellulose) (HPC)
  T/C: 100 % of control

## COc1ccc(C2OC(=O)CN2C(=O)c2ccccc2)cc1 (centres undefined)
[14]
  T/C: 107 % of control
dose: 100.0 mg/kg/injection, schedule: Q01DX005 (ip), vehicle: saline with Tween-80
  T/C: 95 % of control
[15]
  T/C: 90 % of control

## O=C(Nc1ccccc1)/C(Cl)=C(/Cl)C(=O)C(Cl)(Cl)Cl
dose: 12.5 mg/kg/injection, schedule: Q01DX009 (ip), vehicle: distilled water + Tween-80
  T/C: 103 % of control
dose: 25.0 mg/kg/injection, schedule: Q01DX009 (ip), vehicle: distilled water + Tween-80
  T/C: 103 % of control

## CSC(=S)NN=C1CCCC1
[8]
  T/C: 101 % of control
[9]
  T/C: 101 % of control

## CN1ON(c2ccc(Cl)c(Cl)c2)OC1=O
[16]
  T/C: 103 % of control
[17]
  T/C: 105 % of control
[18]
  T/C: 104 % of control and 109 % of control

## c1ccc2c(c1)OCc1nccn1-2
[10]
  T/C: 99 % of control
[11]
  T/C: 100 % of control

## Cc1cnc2cc(-c3ccccc3)[nH]c2n1
dose: 15.0 mg/kg/injection, schedule: Q01DX005 (ip), vehicle: Klucel (hydroxypropylcellulose) (HPC)
  T/C: 90 % of control
dose: 30.0 mg/kg/injection, schedule: Q01DX005 (ip), vehicle: Klucel (hydroxypropylcellulose) (HPC)
  T/C: 87 % of control
[10]
  T/C: 88 % of control

## COc1ccc2c(c1)s/c(=N/N)n2CCCS(=O)(=O)O
[18]
  T/C: 109 % of control
[19]
  T/C: 103 % of control
[20]
  T/C: 110 % of control

## Oc1cccc(/C=N/N2CCc3ccccc3C2)c1
[1]
  T/C: 96 % of control
dose: 100.0 mg/kg/injection, schedule: Q01DX001 (ip), vehicle: Klucel (hydroxypropylcellulose) (HPC)
  T/C: 100 % of control
dose: 200.0 mg/kg/injection, schedule: Q01DX001 (ip), vehicle: Klucel (hydroxypropylcellulose) (HPC)
  T/C: 92 % of control

## CC(=O)CC(C)=NCCN=C(C)CC(C)=O.C[CH2][Sn][CH2]C
dose: 12.5 mg/kg/injection, schedule: Q04DX003 (ip), vehicle: saline
  T/C: 106 % of control
dose: 25.0 mg/kg/injection, schedule: Q04DX003 (ip), vehicle: saline
  T/C: 105 % of control
dose: 50.0 mg/kg/injection, schedule: Q04DX003 (ip), vehicle: saline
  T/C: 120 % of control
dose: 100.0 mg/kg/injection, schedule: Q04DX003 (ip), vehicle: saline
  T/C: 150 % of control

## CO[C@@]1([C@@H](Cl)c2ccccc2)C(=O)N(C)/C(=C\c2ccccc2)C(=O)N1C
[10]
  T/C: 105 % of control
[11]
  T/C: 92 % of control
[12]
  T/C: 97 % of control

## CCOC(=O)C1=C(C)N[C@H](c2ccccc2[N+](=O)[O-])N[C@H]1c1ccccc1[N+](=O)[O-]
dose: 12.5 mg/kg/injection, schedule: Q01DX005 (ip), vehicle: Klucel (hydroxypropylcellulose) (HPC)
  T/C: 105 % of control
dose: 25.0 mg/kg/injection, schedule: Q01DX005 (ip), vehicle: Klucel (hydroxypropylcellulose) (HPC)
  T/C: 94 % of control
[13]
  T/C: 88 % of control and 92 % of control

## CCC(=O)NN1C(=O)c2ccccc2C1=O
[2]
  T/C: 103 % of control
[3]
  T/C: 104 % of control
[4]
  T/C: 99 % of control

## Nc1nc2nc(N)[nH]c2c(=O)[nH]1
dose: 12.5 mg/kg/injection, schedule: Q01DX005 (ip), vehicle: saline with Tween-80
  T/C: 95 % of control
dose: 25.0 mg/kg/injection, schedule: Q01DX005 (ip), vehicle: saline with Tween-80
  T/C: 100 % of control and 105 % of control and 106 % of control
[14]
  T/C: 100 % of control and 104 % of control and 113 % of control
[15]
  T/C: 107 % of control

## COC1C(C)OC(O[C@@H]2C[C@@](C)(O)Cc3cc4c(c(O)c32)C(=O)c2c(O)cc3c(c2C4=O)O[C@@H]2O[C@@]3(C)[C@@H](O)[C@H](N(C)C)[C@H]2O)C(OC)C1(C)OC (some centres undefined)
dose: 3.12 mg/kg/injection, schedule: Q01DX009 (ip), vehicle: other
  T/C: 119 % of control

## O=S(O)O
[5]
  T/C: 108 % of control
[6]
  T/C: 101 % of control
[7]
  T/C: 109 % of control
dose: 400.0 mg/kg/injection, schedule: Q01DX005 (ip), vehicle: saline
  T/C: 116 % of control

## COCCCCCC(=O)OC
dose: 60.0 mg/kg/injection, schedule: Q01DX005 (ip), vehicle: saline
  T/C: 101 % of control
dose: 120.0 mg/kg/injection, schedule: Q01DX005 (ip), vehicle: saline
  T/C: 100 % of control
dose: 240.0 mg/kg/injection, schedule: Q01DX005 (ip), vehicle: saline
  T/C: 104 % of control

## O=C(O)CNCC(=O)O
[16]
  T/C: 94 % of control
[17]
  T/C: 99 % of control
[18]
  T/C: 93 % of control
[19]
  T/C: 100 % of control and 98 % of control
[20]
  T/C: 100 % of control
dose: 400.0 mg/kg/injection, schedule: Q01DX009 (ip), vehicle: saline
  T/C: 90 % of control

## O=C(NC1CCCCC1)NS(=O)(=O)c1ccc(CCNC(=O)c2cccc3c2OCC3)cc1
dose: 50.0 mg/kg/injection, schedule: Q01DX009 (ip), vehicle: saline with Tween-80
  T/C: 100 % of control
dose: 100.0 mg/kg/injection, schedule: Q01DX009 (ip), vehicle: saline with Tween-80
  T/C: 99 % of control
dose: 200.0 mg/kg/injection, schedule: Q01DX009 (ip), vehicle: saline with Tween-80
  T/C: 98 % of control

## CC(=O)OC(C(=O)N1CC1)C(OC(C)=O)C(OC(C)=O)C(OC(C)=O)C(=O)N1CC1 (centres undefined)
dose: 25.0 mg/kg/injection, schedule: Q01DX009 (ip), vehicle: Klucel (hydroxypropylcellulose) (HPC)
  T/C: 217 % of control
dose: 50.0 mg/kg/injection, schedule: Q01DX009 (ip), vehicle: Klucel (hydroxypropylcellulose) (HPC)
  T/C: 237 % of control and 255 % of control
dose: 100.0 mg/kg/injection, schedule: Q01DX009 (ip), vehicle: Klucel (hydroxypropylcellulose) (HPC)
  T/C: 88 % of control

## CC(C)CN1C(=O)C2C3CCC(O3)C2C1=O (centres undefined)
[2]
  T/C: 91 % of control
[3]
  T/C: 91 % of control
[4]
  T/C: 91 % of control

## C/C=C/c1ccc(OC(C)C(=O)c2ccc(OC)c(OC)c2)c(OC)c1 (centres undefined)
dose: 10.0 mg/kg/injection, schedule: Q01DX005 (ip), vehicle: Klucel (hydroxypropylcellulose) (HPC)
  T/C: 97 % of control
dose: 20.0 mg/kg/injection, schedule: Q01DX005 (ip), vehicle: Klucel (hydroxypropylcellulose) (HPC)
  T/C: 100 % of control
dose: 40.0 mg/kg/injection, schedule: Q01DX005 (ip), vehicle: Klucel (hydroxypropylcellulose) (HPC)
  T/C: 99 % of control
